Test results taken from article PMC12802961 (Journal of Antimicrobial Chemotherapy, 2025).

Tests used:
[1] = in vivo
[2] = tested on: MBL- and ESBL-producing isolates; details: cited from earlier work
[3] = human, in vivo; cited from earlier work
KPC P. aeruginosa = KPC P. aeruginosa strain of previous animal study, cited from earlier work
[4] = tested on: two ESBL-producing Enterobacterales and one AmpC- and one VIM-producing P. aeruginosa isolates; assay: Checkerboard broth microdilution MIC, all four strains together; type: cell-based
Description: Four previously well-characterized cefepime-resistant isolates, namely one ESBL-producing E. coli, one ESBL-producing K. pneumoniae and two P. aeruginosa (one VIM- and one AmpC constitutively -producing), were used.

[5] = human simulated regimen of cefepime 2 g q8h as 2 h infusion; cited from earlier work
KPC K. pneumoniae = KPC K. pneumoniae strain of previous animal study, cited from earlier work

| SMILES | fT > Ct 8 mg/L [1] | Cefepime MIC reduction [2] | half-life [3] | unpotentiated cefepime MIC (KPC P. aeruginosa) | potentiated cefepime MIC (KPC P. aeruginosa; with taniborbactam) | Cefepime MIC in the presence of 4 mg/L taniborbactam, all strains ([4]; +taniborbactam 4 mg/L) | MIC ([4]; Pseudomonas aeruginosa, read-out: Cefepime MIC, all strains, cefepime alone) | Cefepime MIC, all strains ([4]; cefepime alone) | fAUC0-24 [5] | unpotentiated cefepime MIC (KPC K. pneumoniae) | potentiated cefepime MIC (KPC K. pneumoniae; with taniborbactam) |
| --- | --- | --- | --- | --- | --- | --- | --- | --- | --- | --- | --- |
| NCCN[C@H]1CC[C@H](CC(=O)N[C@H]2Cc3cccc(C(=O)O)c3OB2O)CC1 [taniborbactam, Taniborbactam] | 100% | ≥ 2 fold | 10 h |  |  |  |  |  |  |  |  |
| CO/N=C(\C(=O)N[C@@H]1C(=O)N2C(C(=O)[O-])=C(C[N+]3(C)CCCC3)CS[C@H]12)c1csc(N)n1 [cefepime, Cefepime] |  |  |  | > 512 µg/mL | 4 µg/mL | 0.06 to 4 µg/mL | 16 to 256 µg/mL | > 8 µg/mL | ~787.8 µg·h/mL | > 512 µg/mL | 2 µg/mL |
